Test results as given in patent US20240254129A1, “HETEROCYCLIC COMPOUNDS AND USES THEREOF” (Kumquat Biosciences Inc., priority 2021, published 2024).
Like-named read-outs stand apart in the source and are kept apart here.

Legend:
[1] = target: T1, wildtype Kras / hSOS1 (Homo sapiens, UniProt P01116); assay: HTRF assay, wildtype Kras / SOS1 interaction; type: binding; settings: read-out: IC50 against wildtype Kras
T1 construct: made in house; host or cells: E. coli BL21 (DE3)
In short: (§1)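 GST-tagged K-Ras (mutant or wildtype) with anti-GST-Eu donor was mixed with His-hSOS1 and anti-6His-XL665 acceptor in HEPES pH 7.4 buffer with NaCl, DTT, BSA and Igepal. After ≥10 min, HTRF was read (ex 337 nm, em 620/665 nm); 665/620 ratios gave IC50 from duplicate dilution series.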

[2] = target: GST-tagged K-Ras mutant / His-tagged hSOS1 (Homo sapiens, UniProt P01116); assay: HTRF assay, K-Ras mutant / SOS1 interaction; type: binding; settings: read-out: IC50 against mutant Kras
Sequence of GST-tagged K-Ras mutant / His-tagged hSOS1 (P01116 whole entry G12D, form open): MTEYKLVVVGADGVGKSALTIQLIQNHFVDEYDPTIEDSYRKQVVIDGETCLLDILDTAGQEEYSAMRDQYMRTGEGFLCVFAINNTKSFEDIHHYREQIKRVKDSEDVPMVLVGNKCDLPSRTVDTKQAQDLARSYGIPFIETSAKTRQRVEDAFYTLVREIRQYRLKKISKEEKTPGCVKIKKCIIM
In short: as §1

[3] = compound nos. 102-196, general methodology of example 5
[4] = compound nos. 201-213, general methodology of example 5

T1 sequence (P01116 1-188 isoform P01116-2): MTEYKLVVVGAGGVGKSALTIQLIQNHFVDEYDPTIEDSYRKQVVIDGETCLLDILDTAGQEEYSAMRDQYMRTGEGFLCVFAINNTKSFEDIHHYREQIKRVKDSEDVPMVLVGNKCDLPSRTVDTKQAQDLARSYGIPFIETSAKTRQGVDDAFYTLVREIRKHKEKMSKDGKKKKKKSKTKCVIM

Structure (SMILES) | IC50 ([1]; compound nos. 401-703) | IC50 ([2]; compound nos. 401-703) | also measured
N#CC1C2CCC1CN(c1nc(OC[C@@]34CCCN3C[C@H](F)C4)nc3c(F)c(-c4ccc(F)c5sc(N)nc45)c(Cl)cc13)C2 (stereo partly drawn) [Compound 403, (1R,5S,8S)-3-(7-(2-amino-7-fluorobenzo[d]thiazol-4-yl)-6-chloro-8-fluoro-2-(((2R,7aS)-2-fluorotetra-hydro-1H-pyrrolizin-7a(5H)-yl)methoxy)quinazolin-4-yl)-3-azabicyclo[3.2.1]-octane-8-carbonitrile] | < 500 nM | < 500 nM | 
Nc1nc2c(-c3c(Cl)cc4c(N5CCCN(S(=O)(=O)C6CC6)CC5)nc(OC[C@@]56CCCN5C[C@H](F)C6)nc4c3F)ccc(F)c2s1 [Compound 435, 4-(6-chloro-4-(4-(cyclo-propylsulfonyl)-1,4-diazepan-1-yl)-8-fluoro-2-(((2R,7aS)-2-fluorotetra-hydro-1H-pyrrolizin-7a(5H)-yl)methoxy)quinazolin-7-yl)-7-fluorobenzo[d]thiazol-2-amine] | < 500 nM | < 500 nM | 
Nc1nc2c(-c3ccc4c(N5CC6CCC(C5)N6)nc(OC[C@@]56CCCN5C[C@H](F)C6)nc4c3F)cccc2o1 [Compound 634, 4-(4-(3,8-diazabicyclo-[3.2.1]octan-3-yl)-8-fluoro-2-(((2R,7aS)-2-fluorotetra-hydro-1H-pyrrolizin-7a(5H)-yl)methoxy)quinazolin-7-yl)benzo[d]oxazol-2-amine] | > 500 nM | > 500 nM | 
Nc1nc2c(-c3c(Cl)cc4c(N5CCCCCCC5)nc(OC[C@@]56CCCN5C[C@H](F)C6)nc4c3F)ccc(F)c2s1 [Compound 667, 4-(4-(azocan-1-yl)-6-chloro-8-fluoro-2-(((2R,7aS)-2-fluorotetrahydro-1H-pyrrol-izin-7a(5H)-yl)methoxy)-quinazolin-7-yl)-7-fluoro-benzo[d]thiazol-2-amine] | > 500 nM | < 500 nM | 
Nc1nc2c(-c3c(Cl)cc4c(N5CC6CCC(C5)N6)nc(OCC5(CN6CC[C@@H](F)C6)CC5)nc4c3F)ccc(F)c2s1 [Compound 586, 4-(4-(3,8-diazabicyclo-[3.2.1]octan-3-yl)-6-chloro-8-fluoro-2-((1-(((R)-3-fluoropyrrolidin-1-yl)meth-yl)cyclopropyl)methoxy)-quinazolin-7-yl)-7-fluoro-benzo[d]thiazol-2-amine] | > 500 nM | < 500 nM | 
CN(C)C1CN(c2nc(N3CC4CCC(C3)N4)c3cc(CCC#N)c(-c4ccc(F)c5sc(N)nc45)c(F)c3n2)C1 [Compound 516, 3-(7-(2-amino-7-fluoroben-zo[d]thiazol-4-yl)-4-(3,8-diazabicyclo[3.2.1]octan-3-yl)-2-(3-(dimethylamino)-azetidin-1-yl)-8-fluoroquin-azolin-6-yl)propanenitrile] | > 500 nM | > 500 nM | 
CN1CCC[C@H]1COc1nc(N2C3CCNCC2CC3)c2cc(Cl)c(-c3cccc4sc(N)nc34)c(F)c2n1 (stereo partly drawn) [Compound 180, 4-(4-(3,9-diazabicyclo-[4.2.1]nonan-9-yl)-6-chloro-8-fluoro-2-(((S)-1-methyl-pyrrolidin-2-yl)methoxy)-quinazolin-7-yl)benzo[d]-thiazol-2-amine] |  |  | IC50 [1, 3]: > 500 nM; IC50 [2, 3]: < 500 nM
Nc1nc2c(-c3c(Cl)cc4c(N5CCCC(O)CC5)nc(OC[C@@]56CCCN5C[C@H](F)C6)nc4c3F)ccc(F)c2s1 (stereo partly drawn) [Compound 407, 1-(7-(2-amino-7-fluoro-benzo[d]thiazol-4-yl)-6-chloro-8-fluoro-2-(((2R,7aS)-2-fluorotetrahydro-1H-pyr-rolizin-7a(5H)-yl)methoxy)-quinazolin-4-yl)azepan-4-ol] | < 500 nM | < 500 nM | 
Nc1nc2c(-c3c(Cl)cc4c(N5CCOCC(F)(F)C5)nc(OCC56CCCN5CCC6)nc4c3F)ccc(F)c2s1 [Compound 115, 4-(6-chloro-4-(6,6-difluoro-1,4-oxazepan-4-yl)-8-fluoro-2-((tetrahydro-1H-pyrrol-izin-7a(5H)-yl)methoxy)-quinazolin-7-yl)-7-fluoro-benzo[d]thiazol-2-amine] |  |  | IC50 [1, 3]: < 500 nM; IC50 [2, 3]: < 500 nM
Nc1cccc(-c2c(Cl)cc3c(N4CCCCCC4)nc(OCC45CCCN4CCC5)nc3c2F)c1F [Compound 430, 3-(4-(azepan-1-yl)-6-chloro-8-fluoro-2-((tetrahydro-1H-pyrrolizin-7a(5H)-yl)meth-oxy)quinazolin-7-yl)-2-fluoroaniline] | < 500 nM | > 500 nM | 
Cc1ccc2cnn(C)c2c1-c1c(Cl)cc2c(N3CCNCC(F)(F)C3)nc(OC[C@@]34CCCN3C[C@H](F)C4)nc2c1F [Compound 175, 6-chloro-4-(6,6-difluoro-1,4-diazepan-1-yl)-7-(1,6-dimethyl-1H-indazol-7-yl)-8-fluoro-2-(((2R,7aS)-2-fluorotetrahydro-1H-pyrrolizin-7a(5H)-yl)meth-oxy)quinazoline] |  |  | IC50 [1, 3]: < 500 nM; IC50 [2, 3]: < 500 nM
Fc1c(-c2cccc3ncccc23)c(Cl)cc2c(N3CCCCCC3)nc(OCC34CCCN3CCC4)nc12 [Compound 540, 4-(azepan-1-yl)-6-chloro-8-fluoro-7-(quinolin-5-yl)-2-((tetrahydro-1H-pyrrolizin-7a(5H)-yl)methoxy)quin-azoline] | > 500 nM | > 500 nM | 
Oc1cc(-c2c(Cl)cc3c(N4C[C@H]5CC[C@@H](C4)N5)nc(OC[C@@]45CCCN4C[C@H](F)C5)nc3c2F)c2ccccc2c1 [Compound 202, 4-(4-((1R,5S)-3,8-diazabicyclo[3.2.1]octan-3-yl)-6-chloro-8-fluoro-2-(((2R,7aS)-2-fluorotetrahydro-1H-pyrrolizin-7a(5H)-yl)methoxy)quinazolin-7-yl)naphthalen-2-ol] |  |  | IC50 [1, 4]: < 1500 nM; IC50 [2, 4]: < 1500 nM
CN1CCC[C@H]1COc1nc(N2CCCC(F)(F)CC2)c2cc(Cl)c(-c3cccc4sc(N)nc34)c(F)c2n1 [Compound 119, 4-(6-chloro-4-(4,4-difluoro-azepan-1-yl)-8-fluoro-2-(((S)-1-methylpyrrolidin-2-yl)methoxy)quinazolin-7-yl)-benzo[d]thiazol-2-amine] |  |  | IC50 [1, 3]: < 500 nM; IC50 [2, 3]: > 500 nM
Cc1nc2c(-c3c(Cl)cc4c(N5CCNCC(F)(F)C5)nc(OC[C@@H]5CCCN5C)nc4c3F)cccc2s1 [Compound 138, 4-(6-chloro-4-(6,6-difluoro-1,4-diazepan-1-yl)-8-fluoro-2-(((S)-1-methylpyrrolidin-2-yl)methoxy)quinazolin-7-yl)-2-methylbenzo[d]thiazole] |  |  | IC50 [1, 3]: > 500 nM; IC50 [2, 3]: > 500 nM
Nc1nc2c(-c3c(Cl)cc4c(N5CCNCC(F)(F)C5)nc(OCC56CCCN5CCC6)nc4c3F)cccc2s1 [Compound 105, 4-(6-chloro-4-(6,6-difluoro-1,4-diazepan-1-yl)-8-fluoro-2-((tetrahydro-1H-pyrrol-izin-7a(5H)-yl)methoxy)-quinazolin-7-yl)benzo[d]-thiazol-2-amine] |  |  | IC50 [1, 3]: < 500 nM; IC50 [2, 3]: < 500 nM
Cc1ccnc(C(C)C)c1-n1c(=O)nc(N2CC3CCC(C2)N3)c2cc(F)c(-c3cc(O)cc4ccccc34)nc21 [Compound 567, 4-(3,8-diazabicyclo[3.2.1]-octan-3-yl)-6-fluoro-7-(3-hydroxynaphthalen-1-yl)-1-(2-isopropyl-4-methylpyri-din-3-yl)pyrido[2,3-d]pyrim-idin-2(1H)-one] | > 500 nM | > 500 nM | 
COC1CCCCN(c2nc(OC[C@@H]3CCCN3C)nc3c(F)c(-c4cccc5sc(N)nc45)c(Cl)cc23)C1 (stereo partly drawn) [Compound 474, 4-(6-chloro-8-fluoro-4-(3-methoxyazepan-1-yl)-2-(((S)-1-methylpyrrolidin-2-yl)methoxy)quinazolin-7-yl)benzo[d]thiazol-2-amine] | < 500 nM | < 500 nM | 
CC(C)CN1[C@@H]2CC[C@H]1CN(c1nc(OCC34CCCN3CCC4)nc3c(F)c(-c4ccc(F)c5sc(N)nc45)c(Cl)cc13)C2 [Compound 617, 4-(6-chloro-8-fluoro-4-((1R,5S)-8-isobutyl-3,8-diazabicyclo[3.2.1]octan-3-yl)-2-((tetrahydro-1H-pyrrolizin-7a(5H)-yl)meth-oxy)quinazolin-7-yl)-7-fluorobenzo[d]thiazol-2-amine] | > 500 nM | < 500 nM | 
Oc1cc(-c2cnc3c(N4CC5CCC(C4)N5)nc(OC[C@@]45CCCN4C[C@H](F)C5)nc3c2)c2ccccc2c1 (single isomer, unassigned) [Compound 610] | > 500 nM | > 500 nM | 
N#C/C=C/c1cc2c(N3CC4CCC(C3)N4)nc(OC[C@@]34CCCN3C[C@H](F)C4)nc2c(F)c1-c1ccc(F)c2sc(N)nc12 [Compound 495, (E)-3-(7-(2-amino-7-fluoro-benzo[d]thiazol-4-yl)-4-(3,8-diazabicyclo[3.2.1]octan-3-yl)-8-fluoro-2-(((2R,7aS)-2-fluorotetrahydro-1H-pyrrol-izin-7a(5H)-yl)methoxy)-quinazolin-6-yl)acrylonitrile] | < 500 nM | > 500 nM | 
CN1CCC[C@H]1COc1nc(N2CCNCC(F)(F)C2)c2cc(Cl)c(-c3cccc4cnc(N)nc34)c(F)c2n1 [Compound 602, 6-chloro-4-(6,6-difluoro-1,4-diazepan-1-yl)-8-fluoro-2-(((S)-1-methylpyrrolidin-2-yl)methoxy)-[7,8′-biquin-azolin]-2′-amine] | > 500 nM | > 500 nM | 
Nc1nc2c(-c3c(Cl)cc4c(N5C[C@H]6CC[C@@H](C5)[C@@H]6N)nc(OCC56CCCN5CCC6)nc4c3F)ccc(F)c2s1 [Compound 413, 4-(4-((1R,5S,8s)-8-amino-3-azabicyclo[3.2.1]octan-3-yl)-6-chloro-8-fluoro-2-((tetra-hydro-1H-pyrrolizin-7a(5H)-yl)methoxy)quinazolin-7-yl)-7-fluorobenzo[d]thiazol-2-amine] | < 500 nM | < 500 nM | 
